Reference: patent US12048725B2, “Methods for promoting intestinal health and for enhancing antioxidation using prebiotic composition” (TCI CO., LTD., priority 2022, dated 2024)

Tested on: Akkermansia muciniphila
Test: Effects of prebiotic compositions with different components on growth of Akkermansia muciniphila (Example 2)
Type: cell-based
Excerpt: The xylooligosaccharide used was purchased from Shandong Longlive Bio-Technology Co., Ltd. The lactitol used was purchased from Welltech Biotechnology Co., Ltd. The inulin used was purchased from Cosucra. The fructooligosaccharide used was purchased from Meiji. The grape ferment used was the grape ferment prepared in Example 1. The liquid medium used was tryptone soy broth (TSB; hereinafter referred to as TSB medium) with 5% sheep blood (purchased from BD).
The groups were divided into blank group, 5 experimental groups (experimental groups A-E) and 5 control groups (control groups A-E), as shown in Table 1.
The experimental medium used in control groups A-E included 94% TSB medium, 5% sheep blood and 1% single-component prebiotic compositions A-E, respectively; and the single-component prebiotic compositions A-E were xylooligosaccharide, lactitol, inulin, fructooligosaccharide and grape ferment, respectively. […]
1% activated Akkermansia muciniphila was respectively added to a 15 mL test tube containing 5 mL of medium of each group, and subjected to anaerobic culture at 37° C. for 48 hours. After 48 hours of culture, 100 μL of bacterial suspension was respectively taken from the test tube of each group, added to the solid TSB medium containing 5% sheep blood, and subjected to anaerobic culture at 37° C. for 72 hours, and then, the bacterial count of each group was calculated. […]

With `OC[C@@H](O)[C@@H](O[C@@H]1O[C@H](CO)[C@H](O)[C@H](O)[C@H]1O)[C@H](O)[C@@H](O)CO` [control group B, lactitol] the bacterial count (1% prebiotic composition in 94% TSB medium + 5% sheep blood, anaerobic culture at 37° C. for 48 hours, then plated 72 hours, blank group 6.50 log CFU) was 6.67 log CFU and the “effect on bacterial count/growth of Akkermansia muciniphila as compared with the blank group” value (1% prebiotic composition in medium, FIG. 1) was “increased the bacterial count of Akkermansia muciniphila”.
